Laboratory results published in patent publication US8486931B2, “Substituted oxindole compounds” (Abbott GmbH & Co. KG, priority 2007, dated 2013).
pKi: −log10 of the molar value.

Biological target: T1, human vasopressin V1b receptor (Homo sapiens, UniProt P47901)
T1 construct: expressed in transfected cells; host or cells: CHO-K1 (cell line hV1b-3H2_CHO), membrane preparation
T1 sequence (P47901 1-424): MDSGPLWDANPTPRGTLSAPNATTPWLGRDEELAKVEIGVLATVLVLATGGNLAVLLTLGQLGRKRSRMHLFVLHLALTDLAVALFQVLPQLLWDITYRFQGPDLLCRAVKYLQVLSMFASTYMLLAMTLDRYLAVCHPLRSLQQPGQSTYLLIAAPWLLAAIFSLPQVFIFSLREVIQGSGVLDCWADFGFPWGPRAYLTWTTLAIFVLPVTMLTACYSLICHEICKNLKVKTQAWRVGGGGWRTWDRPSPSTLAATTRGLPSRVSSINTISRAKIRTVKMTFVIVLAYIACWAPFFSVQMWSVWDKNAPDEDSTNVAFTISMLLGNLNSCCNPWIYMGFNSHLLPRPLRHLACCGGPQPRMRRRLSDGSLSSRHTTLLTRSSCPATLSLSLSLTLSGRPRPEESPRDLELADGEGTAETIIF
Test: Vasopressin V1b receptor binding assay
Settings: membranes from CHO-K1 cells with stably expressed human V1b receptors, 1.5 nM 3H-AVP displacement; with more than one stereogenic center: the diastereomer with stronger affinity
Method in brief: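 Membranes bearing human V1b receptor incubated 60 min at room temperature in 50 mM Tris, 10 mM MgCl2, 0.1% BSA, pH 7.4, 2% DMSO, triplicate.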

Row | pKi | Structure (SMILES)
1 | > 8.00 | CCOc1ccccc1C1(N2CCN(c3ccncc3)CC2)C(=O)N(S(=O)(=O)c2ccc(C)cn2)c2ccc(C#N)cc21 (single isomer, unassigned; (+)) [Example 61, (+)-5-Cyano-3-(2-ethoxyphenyl)-1-(5-methylpyridine-2-sulfonyl)-3-(4-pyridin-4-yl-piperazin-1-yl)-2,3-dihydro-1H-indol-2-one]
2 | > 8.00 | CCOc1ccc(OC)cc1C1(N2CCN(c3ccncc3)CC2)C(=O)N(S(=O)(=O)c2ccc(C)cn2)c2ccc(C#N)cc21 (racemic) [Example 47, (±)-5-Cyano-3-(2-ethoxy-5-methoxyphenyl)-1-(5-methylpyridine-2-sulfonyl)-3-(4-pyridin-4-ylpiperazin-1-yl)-2,3-dihydro-1H-indol-2-one]
3 | > 8.00 | CCOc1ccccc1C1(N2CCN(c3ccncc3)CC2)C(=O)N(S(=O)(=O)c2cccc3c(C)ccnc23)c2ccc(C#N)cc21 (single isomer, unassigned; (+)) [Example 63, (+)-5-Cyano-3-(2-ethoxyphenyl)-1-(4-methylquinoline-8-sulfonyl)-3-(4-pyridin-4-yl-piperazin-1-yl)-2,3-dihydro-1H-indol-2-one]
4 | 7.30 to 8.00 | CCOc1cc(F)ccc1C1(N2CCN(c3ccncc3)CC2)C(=O)N(S(=O)(=O)c2cccc3cccnc23)c2ccc(C#N)cc21 (racemic) [Example 46, (±)-5-Cyano-3-(2-ethoxy-4-fluorophenyl)-3-(4-pyridin-4-ylpiperazin-1-yl)-1-(quinoline-8-sulfonyl)-2,3-dihydro-1H-indol-2-one]
5 | > 8.00 | CCOc1ccc(OC)cc1C1(N2CCN(C3CCN(C)CC3)CC2)C(=O)N(S(=O)(=O)c2ccc(OC)c3cccnc23)c2ccc(C#N)cc21 (racemic) [Example 161, (±)-5-Cyano-3-(2-ethoxy-5-methoxy-phenyl)-1-(5-methoxy-quinoline-8-sulfonyl)-3-[4-(1-methyl-piperidin-4-yl)-piperazin-1-yl]-2,3-dihydro-1H-indol-2-one]
6 | > 8.00 | CCOc1ccc(C)cc1C1(N2CCN(c3ccncc3)CC2)C(=O)N(S(=O)(=O)c2ccc(OC)c3cccnc23)c2ccc(C#N)cc21 (racemic) [Example 159, (±)-5-Cyano-3-(2-ethoxy-5-methyl-phenyl)-1-(5-methoxy-quinoline-8-sulfonyl)-3-(4-pyridin-4-yl-piperazin-1-yl)-2,3-dihydro-1H-indol-2-one]
7 | 7.30 to 8.00 | CCOc1nc(Cl)ccc1C1(N2CCN(c3ccnc(C(C)C)c3)CC2)C(=O)N(S(=O)(=O)c2ccc(OC)cn2)c2ccc(C#N)cc21 (racemic) [Example 167, (±)-5-Cyano-3-(6-chloro-2-ethoxy-pyridin-3-yl)-3-[4-(2-isopropyl-pyridin-4-yl)-piperazin-1-yl]-1-(5-methoxy-pyridine-2-sulfonyl)-2,3-dihydro-1H-indol-2-one]
8 | > 8.00 | CCOc1nc(Cl)ccc1C1(N2CCN(C3CCNCC3)CC2)C(=O)N(S(=O)(=O)c2ccc(OC)cn2)c2ccc(C#N)cc21 (racemic) [Example 176, (±)-5-Cyano-3-(6-chloro-2-ethoxy-pyridin-3-yl)-1-(5-methoxy-pyridine-2-sulfonyl-3-(4-piperidin-4-yl-piperazin-1-yl)-2,3-dihydro-1H-indol-2-one]
9 | 7.30 to 8.00 | CCOc1ccccc1C1(N2CCN(c3ccncc3)CC2)C(=O)N(S(=O)(=O)c2ccc(Cl)c3cccnc23)c2ccc(C#N)cc21 (racemic) [Example 12, (±)-5-Cyano-1-(5-chloroquinoline-8-sulfonyl)-3-(2-ethoxyphenyl)-3-(4-pyridin-4-yl-piperazin-1-yl)-2,3-dihydro-1H-indol-2-one]
10 | > 8.00 | CCOc1ccc(OC)cc1C1(N2CC3CN(c4ccncc4)CC3C2)C(=O)N(S(=O)(=O)c2ccc(OC)cn2)c2ccc(C#N)cc21 (racemic) [Example 68, (±)-5-Cyano-3-(2-ethoxy-5-methoxyphenyl)-1-(5-methoxypyridine-2-sulfonyl)-3-(5-pyridin-4-ylhexahydropyrrolo[3,4-c]pyrrol-2-yl)-2,3-dihydro-1H-indol-2-one]
11 | 7.30 to 8.00 | CCOc1ccc(OC)cc1C1(N2CCN(c3ccnc(C)c3)CC2)C(=O)N(S(=O)(=O)c2ccc(C)cn2)c2ccc(C#N)cc21 (racemic) [Example 52, (±)-5-Cyano-3-(2-ethoxy-5-methoxyphenyl)-1-(5-methylpyridine-2-sulfonyl)-3-[4-(2-methylpyridin-4-yl)piperazin-1-yl]-2,3-dihydro-1H-indol-2-one]
12 | > 8.00 | CCOc1ncccc1C1(N2CCN(c3ccncc3)CC2)C(=O)N(S(=O)(=O)c2cccc3cccnc23)c2ccc(C#N)cc21 (racemic) [Example 5, (±)-5-Cyano-3-(2-ethoxypyridin-3-yl)-3-(4-pyridin-4-ylpiperazin-1-yl)-1-(quinoline-8-sulfonyl)-2,3-dihydro-1H-indol-2-one]
13 | > 8.00 | COc1nc(Cl)ccc1C1(N2CCN(c3ccncc3)CC2)C(=O)N(S(=O)(=O)c2cccc3cccnc23)c2ccc(Cl)cc21 (racemic) [Example 10, (±)-5-Chloro-3-(6-chloro-2-methoxypyridin-3-yl)-3-(4-pyridin-4-ylpiperazin-1-yl)-1-(quinoline-8-sulfonyl)-1,3-dihydroindol-2-one]
14 | 7.30 to 8.00 | COc1cccc(C2(N3CCN(c4ccncc4)CC3)C(=O)N(S(=O)(=O)c3cccc4cccnc34)c3ccc(Cl)cc32)c1OC (racemic) [Example 2, (±)-5-Chloro-3-(2,3-dimethoxyphenyl)-3-(4-pyridin-4-ylpiperazin-1-yl)-1-(quinoline-8-sulfonyl)-1,3-dihydroindol-2-one]
15 | > 8.00 | CCOc1ccccc1C1(N2CCN(c3ccncc3)CC2)C(=O)N(S(=O)(=O)c2cccc3cccnc23)c2ccc(C#N)cc21 (single isomer, unassigned; (+)) [Example 60, (+)-5-Cyano-3-(2-ethoxyphenyl)-3-(4-pyridin-4-ylpiperazin-1-yl)-1-(quinolin-8-sulfonyl)-2,3-dihydro-1H-indol-2-one]
16 | > 8.00 | CCOc1ccccc1C1(N2CCN(c3ccncc3)CC2)C(=O)N(S(=O)(=O)c2ccc(OC)cn2)c2ccc(C#N)cc21 (racemic) [Example 22, (±)-5-Cyano-3-(2-ethoxyphenyl)-1-(5-methoxypyridine-2-sulfonyl)-3-(4-pyridin-4-yl-piperazin-1-yl)-2,3-dihydro-1H-indol-2-one]
17 | > 8.00 | CCOc1ccc(OC)cc1C1(N2CCC(N3CCNCC3)CC2)C(=O)N(S(=O)(=O)c2ccc(OC)cn2)c2ccc(C#N)cc21 (racemic) [Example 86, (±)-5-Cyano-3-(2-ethoxy-5-methoxyphenyl)-1-(5-methoxypyridine-2-sulfonyl)-3-(4-piperazin-1-ylpiperidin-1-yl)-2,3-dihydro-1H-indol-2-one]
18 | 7.30 to 8.00 | CCOc1nc(Cl)ccc1C1(N2CCCN(c3ccncc3)CC2)C(=O)N(S(=O)(=O)c2ccc(OC)c3cccnc23)c2ccc(C#N)cc21 (racemic) [Example 71, (±)-5-Cyano-3-(6-chloro-2-ethoxypyridin-3-yl)-1-(5-methoxyquinoline-8-sulfonyl)-3-(4-pyridin-4-yl-[1,4]diazepan-1-yl)-2,3-dihydro-1H-indol-2-one]
19 | 7.30 to 8.00 | CCOc1nc(Cl)ccc1C1(N2CCCN(c3ccncc3)CC2)C(=O)N(S(=O)(=O)c2ccc(OC)cn2)c2ccc(C#N)cc21 (racemic) [Example 168, (±)-5-Cyano-3-(6-chloro-2-ethoxy-pyridin-3-yl)-1-(5-methoxy-pyridine-2-sulfonyl)-3-(4-pyridin-4-yl-[1,4]diazepan-1-yl)-2,3-dihydro-1H-indol-2-one]
20 | 7.30 to 8.00 | CCOc1ccc(OC)cc1C1(N2CCN(c3ccncc3)CC2)C(=O)N(S(=O)(=O)c2ccc(OC)c3cccnc23)c2ccc(C#N)cc21 (single isomer, unassigned; (+)) [Example 162, (+)-5-Cyano-3-(2-ethoxy-5-methoxy-phenyl)-1-(5-methoxy-quinoline-8-sulfonyl)-3-(4-pyridin-4-yl-piperazin-1-yl)-2,3-dihydro-1H-indol-2-one]
21 | 7.30 to 8.00 | CCOc1nc(Cl)ccc1C1(N2CC3CC2CN3c2ccncc2)C(=O)N(S(=O)(=O)c2ccc(OC)cn2)c2ccc(C#N)cc21 (racemic) [Example 155, (±)-5-Cyano-3-(6-chloro-2-ethoxy-pyridin-3-yl)-1-(5-methoxy-pyridine-2-sulfonyl)-3-((1S,4S)-5-pyridin-4-yl-2,5-diaza-bicyclo[2.2.1]hept-2-yl)-2,3-dihydro-1-2-one]
22 | 7.30 to 8.00 | CCOc1ccccc1C1(N2CCN(c3ccncc3)CC2)C(=O)N(S(=O)(=O)c2ccc(C)c3cccnc23)c2ccc(C#N)cc21 (racemic) [Example 88, (±)-5-Cyano-3-(2-ethoxyphenyl)-1-(5-methylquinoline-8-sulfonyl)-3-(4-pyridin-4-yl-piperazin-1-yl)-2,3-dihydro-1H-indol-2-one]
23 | 7.30 to 8.00 | CCOc1nc(Cl)ccc1C1(N2CCN(c3ccncc3)CC2)C(=O)N(S(=O)(=O)c2ccc(OC)cc2OC)c2ccc(C#N)cc21 (racemic) [Example 29, (±)-5-Cyano-3-(6-chloro-2-ethoxypyridin-3-yl)-1-(2,4-dimethoxybenzenesulfonyl)-3-(4-pyridin-4-ylpiperazin-1-yl)-2,3-dihydro-1H-indol-2-one]
24 | > 8.00 | COc1ccc(C2(N3CCN(c4ccncc4)CC3)C(=O)N(S(=O)(=O)c3cccc4cccnc34)c3ccc(Cl)cc32)c(OC)c1 (racemic) [Example 1, (±)-5-Chloro-3-(2,4-dimethoxyphenyl)-3-(4-pyridin-4-ylpiperazin-1-yl)-1-(quinoline-8-sulfonyl)-1,3-dihydroindol-2-one]
